Results on 14 compounds are retold here after patent publication US11866450B2, “Modulators of Cystic Fibrosis Transmembrane Conductance regulator, pharmaceutical compositions, methods of treatment, and process for making the modulators” (priority 2018, dated 2024).

SMILES strings stand for the structures.

The assay addresses CFTR-mediated chloride transport (Homo sapiens, UniProt P13569). The class given is cell-based. The note with it: enteroid cells incubated with test compound 18-24 hours, acute 10 μM forskolin and 300 nM Compound III; for Max. Activity: % of chloride transport with 3 μM Compound A, 3 μM Compound II and 300 nM acute Compound III triple combination control. As to the method: Base medium (ADF+++) consisted of Advanced DMEM/Ham's F12, 2 mM Glutamax, 10 mM HEPES, […] penicillin/streptomycin.
Intestinal enteroid maintenance medium (IEMM) consisted of ADF+++, 1× B27 supplement, 1× N2 supplement, 1.25 mM N-acetyl cysteine, 10 mM Nicotinamide, 50 ng/mL hEGF, 10 nM Gastrin, 1 μg/mL hR-spondin-1, 100 ng/mL hNoggin, TGF-b type 1 inhibitor A-83-01, 100 μg/mL Primocin, 10 μM P38 MAPK inhibitor SB202190.
Bath 1 Buffer consisted of 1 mM MgCl2, 160 mM NaCl, 4.5 mM KCl, 10 mM HEPES, 10 mM Glucose, 2 mM CaCl2).
Chloride Free Buffer consisted of 1 mM Magnesium Gluconate, 2 mM Calcium Gluconate, 4.5 mM Potassium Gluconate, 160 mM Sodium Gluconate, 10 mM HEPES, 10 mM Glucose.
Bath1 Dye Solution consisted of Bath 1 Buffer, 0.04% Pluronic F127, 20 μM Methyl Oxonol, 30 μM CaCCinh-A01, 30 μM Chicago Sky Blue.
Chloride Free Dye Solution consisted of Chloride Free Buffer, 0.04% Pluronic F127, 20 μM Methyl Oxonol, 30 μM CaCCinh-A01, 30 μM Chicago Sky Blue.
Chloride Free Dye Stimulation Solution consisted of Chloride Free Dye Solution, 10 μM forskolin, 100 μM IBMX, and 300 nM Compound III.
Human intestinal epithelial enteroid cells were obtained from the Hubrecht Institute for Developmental Biology and Stem Cell Research, Utrecht, The Netherlands and expanded in T-Flasks as previously described (Dekkers J F, Wiegerinck C L, de Jonge H R, Bronsveld I, Janssens H M, de Winter-de Groot K M, Brandsma A M, de Jong N W M, Bijvelds M J C, Scholte B J, Nieuwenhuis E E S, van den Brink S, Clevers H, van der Ent C K, Middendorp S and M Beekman J M. A functional CFTR assay using primary cystic fibrosis intestinal organoids. Nat Med. 2013 July; 19(7):939-45).
Cells were recovered in cell recovery solution, collected by centrifugation at 650 rpm for 5 min at 4° C., resuspended in TryPLE and incubated for 5 min at 37° C. Cells were then collected by centrifugation at 650 rpm for 5 min at 4° C. and resuspended in IEMM containing 10 μM ROCK inhibitor (RI) (trans-4-[(1R)-1-aminoethyl]-N-4-pyridinylcyclohexanecarboxamide). The cell suspension was passed through a 40 μm cell strainer and resuspended at 1×10^6 cells/mL in IEMM containing 10 μM RI. Cells were seeded at 5000 cells/well into multi-well plates and incubated for overnight at 37° C., 95% humidity and 5% CO2 prior to assay.
Enteroid cells were incubated with test compound in IEMM for 18-24 hours at 37° C., 95% humidity and 5% CO2. Following compound incubations, a membrane potential dye assay was employed using a FLIPR Tetra to directly measure the potency and efficacy of the test compound on CFTR-mediated chloride transport following acute addition of 10 μM forskolin and 300 nM Compound III. Briefly, cells were washed 5 times in Bath 1 Buffer. Bath 1 Dye Solution was added and the cells were incubated for 25 min at room temperature. Following dye incubation, cells were washed 3 times in Chloride Free Dye Solution. Chloride transport was initiated by addition of Chloride Free Dye Stimulation Solution and the fluorescence signal was read for 15 min. The CFTR-mediated chloride transport for each condition was determined from the AUC of the fluorescence response to acute forskolin and 300 nM Compound III stimulation. Chloride transport was then expressed as a percentage of the chloride transport following treatment with 3 μM Compound A, 3 μM Compound II and 300 nM acute Compound III triple combination control (% Activity).

Chain of CFTR-mediated chloride transport (P13569 whole entry, looked up): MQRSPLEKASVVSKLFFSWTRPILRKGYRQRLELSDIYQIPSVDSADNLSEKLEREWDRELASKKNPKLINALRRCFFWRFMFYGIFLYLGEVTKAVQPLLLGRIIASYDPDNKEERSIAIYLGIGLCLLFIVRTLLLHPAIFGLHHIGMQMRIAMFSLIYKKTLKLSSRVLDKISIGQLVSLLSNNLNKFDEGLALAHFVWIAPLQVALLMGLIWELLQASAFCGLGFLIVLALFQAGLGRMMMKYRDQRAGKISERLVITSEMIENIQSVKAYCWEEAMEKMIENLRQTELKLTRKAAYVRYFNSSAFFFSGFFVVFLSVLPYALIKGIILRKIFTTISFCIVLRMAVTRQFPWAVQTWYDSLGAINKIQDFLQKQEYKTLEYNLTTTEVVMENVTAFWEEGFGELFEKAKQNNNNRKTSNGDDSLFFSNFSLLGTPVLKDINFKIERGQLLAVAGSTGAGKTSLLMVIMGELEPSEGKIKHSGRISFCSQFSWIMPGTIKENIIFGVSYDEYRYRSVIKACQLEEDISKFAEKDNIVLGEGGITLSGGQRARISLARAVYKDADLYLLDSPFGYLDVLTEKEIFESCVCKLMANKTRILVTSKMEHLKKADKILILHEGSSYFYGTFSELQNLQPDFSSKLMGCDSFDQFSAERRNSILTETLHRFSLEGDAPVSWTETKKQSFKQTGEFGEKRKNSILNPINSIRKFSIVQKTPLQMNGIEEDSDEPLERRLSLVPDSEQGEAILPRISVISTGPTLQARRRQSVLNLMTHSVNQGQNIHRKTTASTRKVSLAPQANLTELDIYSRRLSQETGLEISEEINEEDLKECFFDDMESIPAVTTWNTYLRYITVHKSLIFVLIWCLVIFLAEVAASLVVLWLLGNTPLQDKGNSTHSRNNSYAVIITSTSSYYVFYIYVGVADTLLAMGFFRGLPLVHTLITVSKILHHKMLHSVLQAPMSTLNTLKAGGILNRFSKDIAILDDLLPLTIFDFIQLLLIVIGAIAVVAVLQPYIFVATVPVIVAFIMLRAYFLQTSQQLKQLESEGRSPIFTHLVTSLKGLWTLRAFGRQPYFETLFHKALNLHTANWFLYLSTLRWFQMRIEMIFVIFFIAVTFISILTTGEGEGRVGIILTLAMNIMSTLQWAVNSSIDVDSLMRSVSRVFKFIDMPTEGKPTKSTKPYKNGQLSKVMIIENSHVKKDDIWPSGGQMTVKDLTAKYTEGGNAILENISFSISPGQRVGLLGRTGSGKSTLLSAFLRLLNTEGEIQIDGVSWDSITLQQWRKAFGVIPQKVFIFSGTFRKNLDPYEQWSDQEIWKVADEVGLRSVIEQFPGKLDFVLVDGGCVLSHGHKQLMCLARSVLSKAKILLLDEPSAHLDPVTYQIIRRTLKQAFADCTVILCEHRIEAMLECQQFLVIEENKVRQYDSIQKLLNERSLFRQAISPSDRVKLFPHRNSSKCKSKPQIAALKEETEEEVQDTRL

In the case of `Cc1c2cnn1CCCC1CN(c3nc(-n4ccc(OCC(C)(C)C(F)(F)F)n4)ccc3C(=O)NS2(=O)=O)C(C)(C)C1` (stereo not shown) [Compound 280, 20,20,22-trimethyl-4-[3-(3,3,3-trifluoro-2,2-dimethylpropoxy)-1H-pyrazol-1-yl]-10λ^6-thia-1,3,9,13,14-pentaazatetracyclo[16.2.1.111,14.02,7]docosa-2,4,6,11(22),12-pentaene-8,10,10-trione], the EC50 was less than 1000 nM and the “Max. Activity” value is “++ (++ is 30-60%)”.
For `Cc1c2cnn1CCCC[C@H]1CN(c3nc(-n4ccc(OCCC5(C(F)(F)F)CC5)n4)ccc3C(=O)NS2(=O)=O)C(C)(C)C1` (single isomer, unassigned) [Compound 80, 21,21,23-Trimethyl-4-(3-{2-[1-(trifluoromethyl)cyclopropyl]ethoxy}-1H-pyrazol-1-yl)-10λ^6-thia-1,3,9,13,14-pentaazatetracyclo[17.2.1.111,14.02,7]tricosa-2,4,6,11(23),12-pentaene-8,10,10-trione] the same measures were more than 3000 nM and “+ (+ is <30%)”.
For `CN1CCC[C@@H]2CCC(C)(C)N2c2nc(-n3ccc(OCCC4(C(F)(F)F)CC4)n3)ccc2C(=O)NS(=O)(=O)c2cccc1n2` [Compound 11, (15R)-12,12,19-trimethyl-8-(3-{2-[1-(trifluoromethyl)cyclopropyl]ethoxy}-1H-pyrazol-1-yl)-2λ^6-thia-3,9,11,19,24-pentaazatetracyclo[18.3.1.05,10.011,15]tetracosa-1(24),5(10),6,8,20,22-hexaene-2,2,4-trione] the same measures were less than 1000 nM and “+++ (+++ is >60%)”.
For `CC1(C)C[C@H]2CCCCOc3ccc(cc3)S(=O)(=O)NC(=O)c3ccc(-n4ccc(OCCC5(C(F)(F)F)CC5)n4)nc3N1C2` (single isomer, unassigned) [Compound 95, 12,12-dimethyl-8-(3-{2-[1-(trifluoromethyl)cyclopropyl]ethoxy}-1H-pyrazol-1-yl)-19-oxa-2λ^6-thia-3,9,11-triazatetracyclo[18.2.2.111,14.05,10]pentacosa-1(22),5,7,9,20,23-hexaene-2,2,4-trione] the same measures were less than 1000 nM and “++ (++ is 30-60%)”.
On to `CC(C)(C)CCCN1CCN(c2ccc3c(n2)N2C[C@@H](CCCNc4cccc(n4)S(=O)(=O)NC3=O)CC2(C)C)C1=O` [Compound 193, (14S)-8-[3-(4,4-dimethylpentyl)-2-oxoimidazolidin-1-yl]-12,12-dimethyl-2λ^6-thia-3,9,11,18,23-pentaazatetracyclo[17.3.1.111,14.05,10]tetracosa-1(22),5,7,9,19(23),20-hexaene-2,2,4-trione], for which the EC50 is less than 1000 nM and the “Max. Activity” value is given as “+++ (+++ is >60%)”.
For `CC1CN(c2ccc3c(n2)N2C[C@@H](CCCNc4cccc(n4)S(=O)(=O)NC3=O)CC2(C)C)C(=O)C1CCC(C)(C)C` (stereo partly drawn) [Compound 97, (14S)-8-[3-(3,3-dimethylbutyl)-4-methyl-2-oxopyrrolidin-1-yl]-12,12-dimethyl-2λ^6-thia-3,9,11,18,23-pentaazatetracyclo[17.3.1.111,14.05,10]tetracosa-1(22),5,7,9,19(23),20-hexaene-2,2,4-trione], in that order: less than 1000 nM and “+++ (+++ is >60%)”.
Consider `CC1(C)C[C@H]2CCCCNc3cccc(n3)S(=O)(=O)NC(=O)c3ccc(-n4ccc(OCCC5(C(F)(F)F)CC5)n4)nc3N1C2` (single isomer, unassigned) [Compound 29, 12,12-dimethyl-8-(3-{2-[1-(trifluoromethyl)cyclopropyl]ethoxy}-1H-pyrazol-1-yl)-2λ^6-thia-3,9,11,19,24-pentaazatetracyclo[18.3.1.111,14.05,10]pentacosa-1(23),5,7,9,20(24),21-hexaene-2,2,4-trione], for which the EC50 is less than 1000 nM and the “Max. Activity” value is given as “++ (++ is 30-60%)”.
Turning to `Cc1ccc2nc1S(=O)(=O)NC(=O)c1ccc(-n3ccc(OCCC4(C(F)(F)F)CC4)n3)nc1N1C[C@H](CCCN2)CC1(C)C` (single isomer, unassigned) [Compound 149, 12,12,22-trimethyl-8-(3-{2-[1-(trifluoromethyl)cyclopropyl]ethoxy}-1H-pyrazol-1-yl)-2λ^6-thia-3,9,11,18,23-pentaazatetracyclo[17.3.1.111,14.05,10]tetracosa-1(23),5(10),6,8,19,21-hexaene-2,2,4-trione], the EC50 was less than 1000 nM and the “Max. Activity” value is “+++ (+++ is >60%)”.
Regarding `CC1(C)CC2CCCNc3cccc(n3)S(=O)(=O)NC(=O)c3ccc(-n4ccc(OCC5C(C)(C)C5(C)C)n4)nc3N1C2` (stereo not shown) [Compound 42, 12,12-dimethyl-8-{3-[(2,2,3,3-tetramethylcyclopropyl)methoxy]-1H-pyrazol-1-yl}-2λ^6-thia-3,9,11,18,23-pentaazatetracyclo[17.3.1.111,14.05,10]tetracosa-1(22),5,7,9,19(23),20-hexaene-2,2,4-trione], the EC50 is less than 1000 nM and the “Max. Activity” value was “+++ (+++ is >60%)”.
Take `Cc1ccc2nc1NCCC[C@H]1CN(c3nc(-n4ccc(OCCC5(C(F)(F)F)CC5)n4)ccc3C(=O)NS2(=O)=O)C(C)(C)C1` (single isomer, unassigned) [Compound 114, 12,12,20-trimethyl-8-(3-{2-[1-(trifluoromethyl)cyclopropyl]ethoxy}-1H-pyrazol-1-yl)-2λ^6-thia-3,9,11,18,23-pentaazatetracyclo[17.3.1.111,14.05,10]tetracosa-1(23),5(10),6,8,19,21-hexaene-2,2,4-trione]: the EC50 is more than 3000 nM and the “Max. Activity” value was “+ (+ is <30%)”.
For `CC(C)(C)CCN1CCN(c2ccc3c(n2)N2C(CCCNc4cccc(n4)S(=O)(=O)NC3=O)CCC2(C)C)C1=O` (stereo not shown) [Compound 232, 8-[3-(3,3-dimethylbutyl)-2-oxoimidazolidin-1-yl]-12,12-dimethyl-2λ^6-thia-3,9,11,19,24-pentaazatetracyclo[18.3.1.05,10.011,15]tetracosa-1(23),5,7,9,20(24),21-hexaene-2,2,4-trione] the same measures were more than 3000 nM and “+ (+ is <30%)”.
For the compound `Cc1nn2cc1S(=O)(=O)NC(=O)c1ccc(-n3ccc(OCCC4(C(F)(F)F)CC4)n3)nc1N1C[C@H](CCCC2)CC1(C)C` (single isomer, unassigned) [Compound 92, 12,21,21-trimethyl-4-(3-{2-[1-(trifluoromethyl)cyclopropyl]ethoxy}-1H-pyrazol-1-yl)-10λ^6-thia-1,3,9,13,14-pentaazatetracyclo[17.2.1.111,14.02,7]tricosa-2,4,6,11(23),12-pentaene-8,10,10-trione], the EC50 is less than 1000 nM and the “Max. Activity” value was “++ (++ is 30-60%)”.
For `Cc1c2cnn1CCCC1CN(c3nc(-n4ccc(OCC(C)(C)C(F)(F)F)n4)ccc3C(=O)NS2(=O)=O)C(C)(C)C1` (single isomer, unassigned) [Compound 289, 20,20,22-Trimethyl-4-[3-(3,3,3-trifluoro-2,2-dimethylpropoxy)-1H-pyrazol-1-yl]-10λ^6-thia-1,3,9,13,14-pentaazatetracyclo[16.2.1.111,14.02,7]docosa-2,4,6,11(22),12-pentaene-8,10,10-trione] the same measures were less than 1000 nM and “++ (++ is 30-60%)”.
For `CC1(C)C[C@@H]2CCCNc3cccc(n3)S(=O)(=O)NC(=O)c3ccc(-n4ccc(OCC[C@@H](O)C5(C(F)(F)F)CC5)n4)nc3N1C2` (single isomer, unassigned) [Compound 297] the same measures were less than 1000 nM and “+++ (+++ is >60%)”.

As a reminder, the EC50 is the concentration needed to bring the measured effect to its halfway point.
